{"source": "patent US20230414771A1", "about": "“PREPARATION AND USE OF IMMUNOSTIMULATORY CONJUGATED COMPLEXES FOR TARGETED DELIVERY AND ACTIVATION” (YAFEI SHANGHAI BIOLOGY MEDICINE SCIENCE & TECHNOLOGY CO., …, priority 2020, published 2023)", "key": {"[1]": {"tested_on": "Human ovarian carcinoma SK-OV-3 tumor tissue homogenate", "test": "Activation in SK-OV-3 tumor tissue homogenate", "assay_type": "biochemical", "details": "SK-OV-3 homogenate pH 6.0, 37° C., 1 mg/ml", "protocol": "(§1) In the experiments of the present disclosure, 1 mg/ml of the sample compound was added to 100 μg of acidified tumor tissue homogenate (pH 6.0) at 37° C. The enzyme in the tumor tissue homogenate can cause the release of doxorubicin, and the reduction of compound and the increase of doxorubicin could be detected by HPLC to compare the activation efficiency of the drug in the tumor tissue."}, "[2]": {"tested_on": "acidified human breast cancer (MDA-MB435) tumor tissue homogenate", "test": "Activation efficiency of S-C-A linkers in tumor tissue homogenate, HPLC", "assay_type": "biochemical", "details": "Table 2-1; C is AAN; 1 mg/ml, homogenate pH 6.0, 37° C.", "protocol": "When C is AAN, the activation of the different S-C-A linkers and the control linker is evaluated in an activation assay. They were dissolved and diluted tenfold using S-C-A conjugates to a concentration of 0.1 mM/ml. The sample compounds were added at a concentration of 1 mg/ml to 100 μg of acidified human breast cancer (MDA—MB435) tumor tissue homogenate (pH 6.0) at 37° C. The enzyme in the tumor tissue homogenate was released and detected by HPLC to compare the efficiency of activation of the linker by the tumor tissue.\nThe effect of the D-type tripeptide on the activation efficiency was examined in comparison to the native peptide sequence linker cleaved by Legumain, S1 in MI-S is —CH2CH2—CONH—, S2: 2 peg."}, "[3]": {"tested_on": "Human renal carcinoma OS-RC-2 tumor tissue homogenate", "test": "Activation in OS-RC-2 tumor tissue homogenate", "assay_type": "biochemical", "details": "OS-RC-2 homogenate pH 6.0, 37° C., 1 mg/ml", "protocol": "as §1"}, "[4]": {"test": "Water solubility test (observation and HPLC)", "assay_type": "physicochemical", "details": "thermodynamic from solid", "protocol": "The compounds prepared in accordance with the examples of the disclosure and the reference compounds C1, C2, C3 and C4 were lyophilized (−70° C.)."}, "[5]": {"tested_on": "CT26 tumors orthotopically transplanted in liver", "test": "Orthotopic liver CT26 tumors, EMC-AANL-DOX, lenvatinib and PD-1", "assay_type": "in vivo, BALB/c mice", "details": "18 μmol/kg IV once weekly for 3 weeks", "protocol": "5×10^5 CT26 cells were injected subcutaneously into the back of nude mice. Randomization was performed when the tumor size reached 800-1000 mm^3. Tumor tissue was then extracted and cut into 100 mm^3 tumor tissue pieces and transplanted orthotopically into BALB/c mouse livers. After one week, when the orthotopically transplanted tumors grew, the mice with orthotopically transplanted tumors were randomized. • 2) Treatment course: 6 mice in one group were treated with drugs. The day of treatment was Day 1. According to the clinical application of EMC-AANL-DOX, the drug was administered intravenously (IV) once weekly for 3 weeks."}, "[6]": {"details": "0.5 mg/ml, pH 5.5", "method": "Add 0.5 ml of sterile water for injection to prepare a 10 mg/ml mother solution. […] Take 30 ul of the mother solution, add 570 ul of buffer solutions with different pH values of 5.5, and prepare a 0.5 mg/ml sample solution. After the sample was clarified, it was placed in a 25° C./37° C. water bath, and after 8 hours, the sample was sampled by HPLC and electrophoresis to detect the content of the sample relative to 0 hours, and the solution stability data of different compounds could be obtained."}, "[7]": {"tested_on": "Human hepatoma HepG2 cells", "test": "Human liver cancer HepG2 tumors in nude mice", "assay_type": "in vivo", "details": "for inhibition in vivo at 54 µmol/kg: Mus musculus, read-out: Tumor inhibition rate (%) Day 28", "method_in_brief": "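Female nude mice aged 6-8 weeks bearing HepG2 xenografts, randomized at 100 mm^3 tumor size. Dosing IV from Day 1 at 54 umol/kg; DOX at 18 umol/kg.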"}, "[8]": {"tested_on": "Human prostate cancer PC-3 tumor tissue homogenate", "test": "Activation in PC-3 tumor tissue homogenate", "assay_type": "biochemical", "details": "PC-3 homogenate pH 6.0, 37° C., 1 mg/ml", "protocol": "as §1"}, "HT1080 tumors": {"tested_on": "HT1080 tumors", "test": "HT1080 tumor model in nude mice, 36 umol/kg", "assay_type": "in vivo", "details": "for inhibition in vivo at 36 µmol/kg: Mus musculus, read-out: Tumor inhibition rate Day 28", "protocol": "• 1. Animals: nude mice aged 6-8 weeks, all female. • 2. Preparation of tumor models • 1) HT1080 cells were purchased from ATCC and characterized according to the instructions provided. […] Randomization was performed when the tumor size reached 100 mm^3. Treatment was then initiated, and the day of initiation of treatment was counted as Day 1. • 3) Treatment process\nAccording to the clinical application of the corresponding compound, the drug was administered intravenously (IV). The compounds indicated in the table were administered at a low dose and at the same dose of 36 umol/kg."}, "CT26 tumor": {"tested_on": "CT26 tumor", "test": "CT26 tumor immune model, tumor suppression and CD8+ T cell analysis", "assay_type": "in vivo, BALB/c mice", "protocol": "• 1) CT26 cells were purchased from ATCC. […] The corresponding 5×10^6 cells were injected subcutaneously into the back of […] mice. After the size of tumors reached at least 100 mm^3, the mice were randomized into groups. Treatment was then initiated, with the day of treatment initiation being Day 1. • 3) The course of treatment. The drug was administered at an equimolar dose of 36 umol/kg. The control group was given normal saline. The drug was administered once a week for three week. • 4) Tumor CD8+ T cell analysis. Tumor tissue was homogenized, individual cells in the tumor were filtered, dissociated and washed twice with buffer, and then incubated with leukocyte common antigen CD45-PE and CD8-FITC-labeled antibodies for 1 hour at room temperature. The cells were washed twice with phosphate buffered saline containing 1% fetal bovine serum, and then the proportion of T lymphocyte antigen (CD8)-positive cells in leukocyte common antigen (CD45)-positive cells was analyzed by flow cytometry. An increase in the ratio indicates an increase in T lymphocytes and therefore an improvement in the immunity of the animal to the tumor. • 5) The grouping and test results are shown in Table 7."}, "Human heart": {"tested_on": "Human heart", "test": "Activation in human heart homogenate", "assay_type": "biochemical", "details": "pH 6.0, 37° C., 1 mg/ml"}, "[9]": {"tested_on": "Human breast cancer MDA-MB435 tumor tissue homogenate", "test": "Activation in MDA-MB435 tumor tissue homogenate", "assay_type": "biochemical", "details": "MDA-MB435 homogenate pH 6.0, 37° C., 1 mg/ml", "protocol": "as §1"}, "BALB/C mice": {"tested_on": "BALB/C mice", "test": "Acute toxicity (MTD) of intravenous administration in mice", "assay_type": "in vivo", "details": "38.4 μmol/kg intravenous, 10 mice, observed 17 days", "protocol": "They were randomly divided into 7 groups according to body weight, 10 mice in each group. […] The control test of saline group and paclitaxel group injection (commercially available, Beijing Youcare pharmaceutical) was carried out, the volume of administration was 0.2 ml for each mouse."}, "[10]": {"tested_on": "Human live cancer Hep G2 tumor tissue homogenate", "test": "Activation in Hep G2 tumor tissue homogenate", "assay_type": "biochemical", "details": "Hep G2 homogenate pH 6.0, 37° C., 1 mg/ml", "protocol": "as §1"}, "[11]": {"details": "drug 36 umol/kg once a week for three weeks, PD-1 antibody 5 mg/kg"}}, "note": "Read-outs that look alike come from different tables or passages of the source. Where a SMILES comes first, the peptide text is derived from it. The star is where a group is joined. Doxorubicin(3'-N) = COc1cccc2c1C(=O)c1c(O)c3c(c(O)c1C2=O)C[C@@](O)(C(=O)CO)C[C@@H]3O[C@H]1C[C@H](N*)[C@H](O)[C@H](C)O1; Hexanoyl(6-maleimido) = O=C1C=CC(=O)N1CCCCCC(=O)*"}
{"compound": "COc1cccc2c1C(=O)c1c(O)c3c(c(O)c1C2=O)C[C@@](O)(C(=O)CO)C[C@@H]3O[C@H]1C[C@H](NC(=O)[C@H](CC(C)C)NC(=O)[C@H](CC(N)=O)NC(=O)[C@H](C)NC(=O)[C@H](C)NC(=O)CCCCCN2C(=O)C=CC2=O)[C@H](O)[C@H](C)O1", "note": "[EMC-AANL-DOX] ({Hexanoyl(6-maleimido)}-AANL-{Doxorubicin(3'-N)})", "values": [{"measurement": "Compound activation ratios (%)", "setting": "[1]", "result": 58.4, "unit": "%"}, {"measurement": "Activation efficiency (%)", "setting": "[2]", "result": 56.4, "unit": "%"}, {"measurement": "Compound activation ratios (%)", "setting": "[3]", "result": 46.4, "unit": "%"}, {"measurement": "solubility", "setting": "[4]", "result": "< 5000", "unit": "µg/mL"}, {"measurement": "efficacy combined with lenvatinib (FIG. 11)", "setting": "[5]", "result": "superior to that of each monotherapy"}, {"measurement": "efficacy combined with PD-1 (FIG. 11)", "setting": "[5]; PD-1 5 mg/kg twice weekly", "result": "superior to that of lenvatinib combined with PD-1"}, {"measurement": "Stability data of the solution, 8 hr (content relative to 0 hours)", "setting": "[6]", "result": 94.3, "unit": "%"}, {"measurement": "Tumor volume (mm^3) Day 28", "setting": "[7]; 54 umol/kg IV once a week for 4 weeks", "result": "218.3 ± 167.7", "unit": "mm^3"}, {"measurement": "inhibition in vivo at 54 µmol/kg", "setting": "[7]; HepG2, 672 h, 54 umol/kg IV once a week for 4 weeks", "result": 92.5, "unit": "%"}, {"measurement": "therapeutic effect on liver cancer, in words", "setting": "[7]; same molar dose", "result": "good effect on the treatment of liver cancer"}, {"measurement": "Compound activation ratios (%)", "setting": "[8]", "result": 37.3, "unit": "%"}, {"measurement": "Tumor volume (mm^3) Day 28", "setting": "HT1080 tumors; 36 umol/kg IV once a week for 3 weeks", "result": "138.3 ± 124.6", "unit": "mm^3"}, {"measurement": "inhibition in vivo at 36 µmol/kg", "setting": "HT1080 tumors; HT-1080, 672 h, 36 umol/kg IV once a week for 3 weeks", "result": 92.1, "unit": "%"}, {"measurement": "CD8:CD45 (%)", "setting": "CT26 tumor; CD8-positive among CD45-positive cells in tumor, flow cytometry", "result": 8.9, "unit": "%"}, {"measurement": "therapeutic effect combined with PD-1, in words", "setting": "CT26 tumor; combined with PD-1 versus single drug", "result": "improved compared with single drug"}, {"measurement": "Tumor inhibition rate (%) Day 28", "setting": "CT26 tumor; [11]", "result": 66.9, "unit": "%"}, {"measurement": "Tumor volume (mm^3) Day 28", "setting": "CT26 tumor; [11]", "result": "624.5 ± 313.6", "unit": "mm^3"}, {"measurement": "Compound activation ratios (%)", "setting": "Human heart", "result": 0.2, "unit": "%"}, {"measurement": "Compound activation ratios (%)", "setting": "[9]", "result": 42.3, "unit": "%"}, {"measurement": "Number of dead mice", "setting": "BALB/C mice", "result": 8}, {"measurement": "Compound activation ratios (%)", "setting": "[10]", "result": 75.3, "unit": "%"}]}
{"compound": "COc1cccc2c1C(=O)c1c(O)c3c(c(O)c1C2=O)C[C@@](O)(C(=O)CO)C[C@@H]3O[C@H]1C[C@H](NC(=O)[C@H](CC(C)C)NC(=O)[C@H](CC(N)=O)NC(=O)[C@H](C)NC(=O)[C@H](C)NC(=O)CCOCCOCCNC(=O)CCN2C(=O)C=CC2=O)[C@H](O)[C@H](C)O1", "note": "[QHL-087-DOX]", "values": [{"measurement": "inhibition in vivo at 54 µmol/kg", "setting": "[7]; HepG2, iv, 672 h", "result": 100, "unit": "%"}, {"measurement": "inhibition in vivo at 36 µmol/kg", "setting": "HT1080 tumors; HT-1080, iv, 672 h", "result": 100, "unit": "%"}, {"measurement": "Number of dead mice", "setting": "BALB/C mice", "result": 4}]}
